Test results: patent publication US4257941A, “Polycyclic nitrogen-containing compounds” (BASF Aktiengesellschaft, priority 1976, dated 1981)
Where a name gives a salt, the structure may show the parent alone.

Test system: lawns
Test: Long-term action on lawns (Example 14)
Format: in vivo
Conditions: for First cutting, green weight relative / First cutting, growth height relative / Second cutting, green weight relative / Second cutting, growth height relative / Third cutting, green weight relative: control 100

| Compound | First cutting, green weight (0.5 kg/ha) | First cutting, growth height (0.5 kg/ha) | Second cutting, green weight (0.5 kg/ha) | Second cutting, growth height (0.5 kg/ha) | Third cutting, green weight (0.5 kg/ha) | First cutting, green weight relative (0.5 kg/ha) | First cutting, growth height relative (0.5 kg/ha) | Second cutting, green weight relative (0.5 kg/ha) | Second cutting, growth height relative (0.5 kg/ha) | Third cutting, green weight relative (0.5 kg/ha) | First cutting, green weight (1.0 kg/ha) | First cutting, growth height (1.0 kg/ha) | Second cutting, green weight (1.0 kg/ha) | Second cutting, growth height (1.0 kg/ha) | Third cutting, green weight (1.0 kg/ha) | First cutting, green weight relative (1.0 kg/ha) | First cutting, growth height relative (1.0 kg/ha) | Second cutting, green weight relative (1.0 kg/ha) | Second cutting, growth height relative (1.0 kg/ha) | Third cutting, green weight relative (1.0 kg/ha) | further results |
| --- | --- | --- | --- | --- | --- | --- | --- | --- | --- | --- | --- | --- | --- | --- | --- | --- | --- | --- | --- | --- | --- |
| CC(=O)Nc1ccc(C)c(NS(=O)(=O)C(F)(F)F)c1 [S, diethanolamine salt of 3-trifluoromethylsulfonamido-p-acetotoluidide, reference compound] | 26.7 g | 14.5 cm | 27.3 g | 14.0 cm | 15.6 g | 75.6 | 80.6 | 102.2 | 95.2 | 102.6 | 23.0 g | 13.0 cm | 27.6 g | 12.5 cm | 15.0 g | 65.2 | 72.2 | 103.4 | 85.0 | 98.6 | First cutting, green weight (2.0 kg/ha): 12.6 g; First cutting, growth height (2.0 kg/ha): 10.5 cm; Second cutting, green weight (2.0 kg/ha): 20.1 g; Second cutting, growth height (2.0 kg/ha): 9.5 cm; Third cutting, green weight (2.0 kg/ha): 13.7 g; First cutting, green weight relative (2.0 kg/ha): 35.7; First cutting, growth height relative (2.0 kg/ha): 58.3; Second cutting, green weight relative (2.0 kg/ha): 75.3; Second cutting, growth height relative (2.0 kg/ha): 64.6; Third cutting, green weight relative (2.0 kg/ha): 90.1; First cutting, green weight (4.0 kg/ha): 9.4 g; First cutting, growth height (4.0 kg/ha): 9.0 cm; Second cutting, green weight (4.0 kg/ha): 9.6 g; Second cutting, growth height (4.0 kg/ha): 4.5 cm; Third cutting, green weight (4.0 kg/ha): 10.4 g; First cutting, green weight relative (4.0 kg/ha): 26.6; First cutting, growth height relative (4.0 kg/ha): 50.0; Second cutting, green weight relative (4.0 kg/ha): 36.0; Second cutting, growth height relative (4.0 kg/ha): 30.6; Third cutting, green weight relative (4.0 kg/ha): 68.4 |
| Brc1ccc(N2N=NC3C4CC(C5N=NC45)C32)cc1 (centres unmarked) [drawing 380] | 25.5 g | 14.5 cm | 27.8 g | 14.5 cm | 16.5 g | 72.2 | 80.6 | 104.1 | 98.6 | 108.6 | 24.4 g | 12.5 cm | 25.1 g | 11.5 cm | 16.5 g | 69.1 | 69.5 | 94.0 | 78.2 | 108.6 | First cutting, green weight (2.0 kg/ha): 22.0 g; First cutting, growth height (2.0 kg/ha): 11.0 cm; Second cutting, green weight (2.0 kg/ha): 18.7 g; Second cutting, growth height (2.0 kg/ha): 8.0 cm; Third cutting, green weight (2.0 kg/ha): 14.0 g; First cutting, green weight relative (2.0 kg/ha): 62.3; First cutting, growth height relative (2.0 kg/ha): 61.1; Second cutting, green weight relative (2.0 kg/ha): 70.0; Second cutting, growth height relative (2.0 kg/ha): 54.4; Third cutting, green weight relative (2.0 kg/ha): 92.1; First cutting, green weight (4.0 kg/ha): 16.5 g; First cutting, growth height (4.0 kg/ha): 10.5 cm; Second cutting, green weight (4.0 kg/ha): 13.2 g; Second cutting, growth height (4.0 kg/ha): 7.0 cm; Third cutting, green weight (4.0 kg/ha): 10.3 g; First cutting, green weight relative (4.0 kg/ha): 46.7; First cutting, growth height relative (4.0 kg/ha): 58.3; Second cutting, green weight relative (4.0 kg/ha): 49.4; Second cutting, growth height relative (4.0 kg/ha): 47.6; Third cutting, green weight relative (4.0 kg/ha): 67.8 |
| Clc1ccc(N2N=NC3C4CC(C5NNC45)C32)cc1 (centres unmarked) [drawing 381] | 28.8 g | 16.5 cm | 27.2 g | 12.5 cm | 17.2 g | 81.6 | 91.7 | 101.9 | 85.0 | 113.2 | 21.3 g | 13.5 cm | 20.5 g | 9.0 cm | 15.1 g | 60.3 | 75.0 | 76.8 | 61.2 | 99.3 | First cutting, green weight (2.0 kg/ha): 17.2 g; First cutting, growth height (2.0 kg/ha): 11.5 cm; Second cutting, green weight (2.0 kg/ha): 16.2 g; Second cutting, growth height (2.0 kg/ha): 7.5 cm; Third cutting, green weight (2.0 kg/ha): 12.5 g; First cutting, green weight relative (2.0 kg/ha): 48.7; First cutting, growth height relative (2.0 kg/ha): 63.9; Second cutting, green weight relative (2.0 kg/ha): 60.7; Second cutting, growth height relative (2.0 kg/ha): 51.0; Third cutting, green weight relative (2.0 kg/ha): 82.2; First cutting, green weight (4.0 kg/ha): 13.9 g; First cutting, growth height (4.0 kg/ha): 9.0 cm; Second cutting, green weight (4.0 kg/ha): 10.2 g; Second cutting, growth height (4.0 kg/ha): 5.0 cm; Third cutting, green weight (4.0 kg/ha): 9.8 g; First cutting, green weight relative (4.0 kg/ha): 39.4; First cutting, growth height relative (4.0 kg/ha): 50.0; Second cutting, green weight relative (4.0 kg/ha): 38.2; Second cutting, growth height relative (4.0 kg/ha): 34.0; Third cutting, green weight relative (4.0 kg/ha): 64.5 |
| Cc1ccccc1N1N=NC2C3CC(C4N=NC34)C21 (centres unmarked) | 26.8 g | 14.0 cm | 23.5 g | 13.0 cm | 16.5 g | 75.9 | 77.8 | 88.0 | 88.4 | 108.6 | 25.5 g | 14.0 cm | 22.0 g | 12.5 cm | 16.3 g | 72.2 | 77.8 | 82.4 | 85.0 | 107.2 | First cutting, green weight (2.0 kg/ha): 20.0 g; First cutting, growth height (2.0 kg/ha): 12.5 cm; Second cutting, green weight (2.0 kg/ha): 21.4 g; Second cutting, growth height (2.0 kg/ha): 22.0 cm; Third cutting, green weight (2.0 kg/ha): 15.7 g; First cutting, green weight relative (2.0 kg/ha): 56.7; First cutting, growth height relative (2.0 kg/ha): 69.5; Second cutting, green weight relative (2.0 kg/ha): 80.1; Second cutting, growth height relative (2.0 kg/ha): 74.8; Third cutting, green weight relative (2.0 kg/ha): 103.3; First cutting, green weight (4.0 kg/ha): 13.2 g; First cutting, growth height (4.0 kg/ha): 9.5 cm; Second cutting, green weight (4.0 kg/ha): 15.3 g; Second cutting, growth height (4.0 kg/ha): 7.5 cm; Third cutting, green weight (4.0 kg/ha): 13.9 g; First cutting, green weight relative (4.0 kg/ha): 37.4; First cutting, growth height relative (4.0 kg/ha): 52.8; Second cutting, green weight relative (4.0 kg/ha): 57.3; Second cutting, growth height relative (4.0 kg/ha): 51.0; Third cutting, green weight relative (4.0 kg/ha): 91.4 |
| c1cc2sncc2cc1N1N=NC2C3CC(C4N=NC34)C21 (centres unmarked) [drawing 382] | 31.8 g | 18.5 cm | 28.8 g | 14.0 cm | 15.5 g | 90.1 | 102.8 | 107.9 | 95.2 | 102.0 | 27.1 g | 16.5 cm | 25.8 g | 13.0 cm | 15.3 g | 76.8 | 91.7 | 96.6 | 88.4 | 100.7 | First cutting, green weight (2.0 kg/ha): 20.3 g; First cutting, growth height (2.0 kg/ha): 14.5 cm; Second cutting, green weight (2.0 kg/ha): 19.1 g; Second cutting, growth height (2.0 kg/ha): 9.0 cm; Third cutting, green weight (2.0 kg/ha): 12.8 g; First cutting, green weight relative (2.0 kg/ha): 57.5; First cutting, growth height relative (2.0 kg/ha): 80.6; Second cutting, green weight relative (2.0 kg/ha): 71.5; Second cutting, growth height relative (2.0 kg/ha): 61.2; Third cutting, green weight relative (2.0 kg/ha): 84.2; First cutting, green weight (4.0 kg/ha): 19.5 g; First cutting, growth height (4.0 kg/ha): 12.5 cm; Second cutting, green weight (4.0 kg/ha): 16.8 g; Second cutting, growth height (4.0 kg/ha): 7.0 cm; Third cutting, green weight (4.0 kg/ha): 12.8 g; First cutting, green weight relative (4.0 kg/ha): 55.2; First cutting, growth height relative (4.0 kg/ha): 69.5; Second cutting, green weight relative (4.0 kg/ha): 62.9; Second cutting, growth height relative (4.0 kg/ha): 47.6; Third cutting, green weight relative (4.0 kg/ha): 84.2 |
